IC50 data for 34 molecules are collected here from PubChem BioAssay AID651650 (Sanford-Burnham Center for Chemical Genomics, 2012).

SMILES strings stand for the structures. pIC50: −log10 of the molar value. The source made the active and inactive calls.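 Rule for the calls: active = mean IC50 below 20 µM in each of the two panels, so potent in both; inactive = the rest.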 Some results are limits rather than exact numbers.

The target of the experiment is Neuropilin-1 (Homo sapiens) (UniProt O14786). The experiment is described as follows: blockers of CendR peptide binding to NRP-1 – biochemical, FP and AlphaScreen panel, dose response (AID 651650). The conditions noted are these: NRP-1 b1b2 / RPARPAR peptide binding, FP or AlphaScreen. Background: Bead proximity is the source of the signal in Alpha formats.
Neuropilin-1 (Homo sapiens), sequence (O14786 whole entry, looked up): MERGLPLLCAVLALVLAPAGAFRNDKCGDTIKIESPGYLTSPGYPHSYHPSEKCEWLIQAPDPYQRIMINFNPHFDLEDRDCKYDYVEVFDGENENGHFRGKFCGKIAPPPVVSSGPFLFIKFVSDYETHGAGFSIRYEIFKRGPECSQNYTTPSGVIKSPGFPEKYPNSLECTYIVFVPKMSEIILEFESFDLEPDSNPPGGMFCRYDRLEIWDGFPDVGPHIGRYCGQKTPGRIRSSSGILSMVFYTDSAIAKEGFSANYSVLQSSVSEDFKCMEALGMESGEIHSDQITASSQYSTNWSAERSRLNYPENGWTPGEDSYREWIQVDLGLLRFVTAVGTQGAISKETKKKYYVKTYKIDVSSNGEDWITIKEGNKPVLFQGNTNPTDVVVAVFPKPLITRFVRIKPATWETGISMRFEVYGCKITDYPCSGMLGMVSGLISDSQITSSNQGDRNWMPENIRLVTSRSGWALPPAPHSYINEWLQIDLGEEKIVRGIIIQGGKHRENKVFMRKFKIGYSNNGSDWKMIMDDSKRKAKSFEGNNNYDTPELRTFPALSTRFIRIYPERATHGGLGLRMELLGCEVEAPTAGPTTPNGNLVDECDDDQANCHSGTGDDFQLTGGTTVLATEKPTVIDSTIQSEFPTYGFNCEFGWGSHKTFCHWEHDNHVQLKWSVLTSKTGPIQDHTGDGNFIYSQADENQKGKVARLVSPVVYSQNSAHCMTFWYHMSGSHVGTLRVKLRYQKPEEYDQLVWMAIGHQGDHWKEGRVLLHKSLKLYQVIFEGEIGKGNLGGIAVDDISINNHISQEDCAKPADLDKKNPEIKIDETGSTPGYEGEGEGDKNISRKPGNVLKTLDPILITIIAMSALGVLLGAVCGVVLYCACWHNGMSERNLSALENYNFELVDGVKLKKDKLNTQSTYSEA
[1] abbreviates: AlphaScreen, run 1, individual panel run IC50.
Where [2] appears, read: FP, run 1, individual panel run IC50.
Setting [3] is: FP, run 2, individual panel run IC50.

As a reminder, the IC50 is the concentration that inhibits the measured activity by half. As usually defined, the pIC50 is the negative decadic logarithm of the IC50, by convention in mol/L. Take `CC1(c2ccccc2)CC(C)(C)n2c(O)c(C3=NC(=S)NC3=O)c3cccc1c32` (stereo not given): the IC50 by setting is: (AlphaScreen, mean of runs) > 100 µM (inactive); (FP, mean of runs) > 95 µM (inactive). In addition, the pIC50 by setting is: under setting [1], less than 4.00; under setting [2], less than 4.02; under setting [3], less than 4.02.

Regarding `O=C(Nc1ccccc1N1CCOCC1)c1ccc(N2CCCC2=O)cc1`, the IC50 was > 100 µM (inactive) (AlphaScreen, mean of runs) and > 95 µM (inactive) (FP, mean of runs). For the same molecule, the pIC50 by setting is: under setting [1], less than 4.00; under setting [2], less than 4.02; under setting [3], less than 4.02.

`O=C(O)CCSc1nnc(COc2cccc3cccnc23)n1-c1ccccc1`: the IC50 was > 100 µM (inactive) (AlphaScreen, mean of runs) and > 95 µM (inactive) (FP, mean of runs). This molecule also had a pIC50 under setting [1] of less than 4.00, a pIC50 under setting [2] of less than 4.02 and a negative-log IC50 (pIC50) under setting [3] of less than 4.02.

As to `O=C(CCCNC(=O)/C(=C\c1ccc(F)cc1)NC(=O)c1ccccc1)OCc1ccccc1`, the IC50 is > 100 µM (inactive) (AlphaScreen, mean of runs) and > 95 µM (inactive) (FP, mean of runs). The pIC50 by setting is: under setting [1], less than 4.00; under setting [2], less than 4.02; under setting [3], less than 4.02.

For the molecule `COc1ccc(CCN=C2SCC(=O)N2Cc2ccccc2)cc1OC`, the IC50 reads like this: (AlphaScreen, mean of runs) > 100 µM (inactive); (FP, mean of runs) > 95 µM (inactive). Moreover, the pIC50 by setting is: under setting [1], less than 4.00; under setting [2], less than 4.02; under setting [3], less than 4.02.

As for `CCCCOc1ccc(C(=O)N/C(=C/C=C/c2ccccc2)C(=O)NCCCO)cc1`, the IC50 was > 100 µM (inactive) (AlphaScreen, mean of runs) and > 95 µM (inactive) (FP, mean of runs). Moreover, the pIC50 by setting is: under setting [1], less than 4.00; under setting [2], less than 4.02; under setting [3], less than 4.02.

Take `O=[N+]([O-])c1cc(-c2csc(NCCc3nc4cc(C(F)(F)F)ccc4n3CCCO)n2)ccc1Cl`: the IC50 was > 100 µM (inactive) (AlphaScreen, mean of runs) and > 95 µM (inactive) (FP, mean of runs). The negative-log IC50 (pIC50) is less than 4.00 under setting [1], less than 4.02 under setting [2] and less than 4.02 under setting [3].

Consider `CC(C)(C)N(NC(=O)Nc1ccc(Cl)cc1)C(=O)c1ccccc1`, for which the IC50 reads like this: (AlphaScreen, mean of runs) > 100 µM (inactive); (FP, mean of runs) > 95 µM (inactive). Further, the pIC50 runs as follows: under setting [1], less than 4.00; under setting [2], less than 4.02; under setting [3], less than 4.02.

Take `CC(CN1CCCCC1)OC(=O)c1ccc(Cl)cc1Cl` (stereo not given): the IC50 (AlphaScreen, mean of runs) was > 100 µM (inactive) and the IC50 (FP, mean of runs) is > 95 µM (inactive). Also, the pIC50 was less than 4.00 under setting [1], less than 4.02 under setting [2] and less than 4.02 under setting [3].

`Cn1cnc2cc(NC(=O)c3ccco3)ccc21`: the negative-log IC50 (pIC50) was 4.73 (AlphaScreen, mean of runs); 4.73 under setting [1]; less than 4.02 under setting [2]; less than 4.02 under setting [3]. For the same molecule, the IC50 (FP, mean of runs) is > 95 µM (inactive).

Take `CCc1cccc(NC(=O)CCc2c(C)nn(-c3ccc(N4CCOCC4)nn3)c2C)c1`: the IC50 result (AlphaScreen, mean of runs) is “inactive”. For the same molecule, the pIC50 reads like this: under setting [1], 4.40; under setting [2], less than 4.02; under setting [3], less than 4.02. For the same molecule, for the setting “FP, mean of runs”, the IC50 is > 95 µM (inactive).

For the molecule `COc1ccc(/C=N/NC(=O)c2nn(-c3ccc(Cl)cc3)c(=O)c3c(N)scc23)cc1`, the IC50 is, setting by setting: (AlphaScreen, mean of runs) > 100 µM (inactive); (FP, mean of runs) > 95 µM (inactive). Besides, the negative logarithm of the IC50 (pIC50) is less than 4.00 under setting [1], less than 4.02 under setting [2] and less than 4.02 under setting [3].

In the case of `CC(=O)N1CCSc2ccc(S(=O)(=O)Nc3ccc(C)cc3)cc21`, the IC50 is, setting by setting: (AlphaScreen, mean of runs) > 100 µM (inactive); (FP, mean of runs) > 95 µM (inactive). In addition, the pIC50 is less than 4.00 under setting [1], less than 4.02 under setting [2] and less than 4.02 under setting [3].

With `CC(=O)OC1CC[C@]2(C#N)[C@H]3CC[C@]4(C)[C@H](C5C=CC(=O)O5)CCC4(O)C3CCC2(O)C1` (stereo not given in full), the IC50 is > 100 µM (inactive) (AlphaScreen, mean of runs) and > 95 µM (inactive) (FP, mean of runs). Also, the negative logarithm of the IC50 (pIC50) under setting [1] is less than 4.00, the pIC50 under setting [2] is less than 4.02 and the negative logarithm of the IC50 (pIC50) under setting [3] is less than 4.02.

`Cc1csc(NC(C)c2nc3cc(C(F)(F)F)ccc3n2CCCO)n1` (stereo not given): the negative logarithm of the IC50 (pIC50) is, setting by setting: (AlphaScreen, mean of runs) 5.07; under setting [1], 5.07; under setting [2], less than 4.02; under setting [3], less than 4.02. Besides, for the setting “FP, mean of runs”, the IC50 is > 95 µM (inactive).

For `Cn1c(=O)c2c(ncn2CC(COCc2ccccc2)OCc2ccccc2)n(C)c1=O` (stereo not given), the IC50 (AlphaScreen, mean of runs) was > 100 µM (inactive) and the IC50 (FP, mean of runs) is > 95 µM (inactive). Besides, the negative logarithm of the IC50 (pIC50) runs as follows: under setting [1], less than 4.00; under setting [2], less than 4.02; under setting [3], less than 4.02.

As for `FC(F)(F)C1CC(c2cccs2)Nc2ncnn21` (stereo not given), the IC50 runs as follows: (AlphaScreen, mean of runs) > 100 µM (inactive); (FP, mean of runs) > 95 µM (inactive). Further, the pIC50 by setting is: under setting [1], less than 4.00; under setting [2], less than 4.02; under setting [3], less than 4.02.

With `Nc1ccc(C#Cc2c(-c3ccsc3)oc3ccc(N4CCOCC4)cc23)cc1`, the IC50 (AlphaScreen, mean of runs) is > 100 µM (inactive) and the IC50 (FP, mean of runs) is > 95 µM (inactive). Moreover, the pIC50 is less than 4.00 under setting [1], less than 4.02 under setting [2] and less than 4.02 under setting [3].

With `Cc1ccc(C(=O)Nc2nnc([C@H]3C[C@H](O)[C@@H](CO)O3)s2)cc1`, the IC50 was > 100 µM (inactive) (AlphaScreen, mean of runs) and > 95 µM (inactive) (FP, mean of runs). Further, the pIC50 is, setting by setting: under setting [1], less than 4.00; under setting [2], less than 4.02; under setting [3], less than 4.02.

Regarding `CN(c1ccc(OCC(=O)OCC(=O)Nc2ccc([N+](=O)[O-])cc2)cc1)S(=O)(=O)c1cccs1`, the IC50 entry (AlphaScreen, mean of runs) is “inactive”. Besides, the pIC50 runs as follows: under setting [1], 4.36; under setting [2], less than 4.02; under setting [3], less than 4.02. For the same molecule, where the note is “FP, mean of runs”, the IC50 was > 95 µM (inactive).

`CCn1c(SCC(=O)c2ccccc2)nnc1-c1cccs1`: the IC50 result (AlphaScreen, mean of runs) is “inactive”. For the same molecule, the negative logarithm of the IC50 (pIC50) under setting [1] is 4.02, the negative-log IC50 (pIC50) under setting [2] was less than 4.02 and the pIC50 under setting [3] is less than 4.02. For the same molecule, the IC50 (FP, mean of runs) is > 95 µM (inactive).

With `COc1cccc(NC(=O)CSc2nc(O)c(C)c(=O)n2-c2ccc(C)cc2)c1`, the IC50 (AlphaScreen, mean of runs) is > 100 µM (inactive). The molecule also had a pIC50 under setting [1] of less than 4.00, a pIC50 under setting [2] of 4.70 and a pIC50 under setting [3] of less than 4.02. Further, the IC50 result (FP, mean of runs) was “inactive”.

Turning to `COc1cccc(OCCNC(=O)Nc2cc(F)c(F)cc2Cl)c1`, the IC50 runs as follows: (AlphaScreen, mean of runs) > 100 µM (inactive); (FP, mean of runs) > 95 µM (inactive). Moreover, the negative logarithm of the IC50 (pIC50) is, setting by setting: under setting [1], less than 4.00; under setting [2], less than 4.02; under setting [3], less than 4.02.

Regarding `O=C(c1ccccn1)N1CCN(S(=O)(=O)c2ccccc2)CC1`, the IC50 result (AlphaScreen, mean of runs) was “inactive”. Besides, the negative-log IC50 (pIC50) was 4.56 under setting [1], less than 4.02 under setting [2] and less than 4.02 under setting [3]. Besides, the IC50 (FP, mean of runs) is > 95 µM (inactive).

For the molecule `O=c1[nH]c(Nc2ccccn2)cc2ccccc12`, the pIC50 (AlphaScreen, mean of runs) is 4.71; the pIC50 under setting [1] is 4.71; the negative-log IC50 (pIC50) under setting [2] was less than 4.02; the pIC50 under setting [3] is less than 4.02. Moreover, the IC50 (FP, mean of runs) was > 95 µM (inactive).

As for `COc1ccc(C(O)c2nc(-c3ccc4ccccc4c3)cs2)cc1` (stereo not given), the IC50 was > 100 µM (inactive) (AlphaScreen, mean of runs) and > 95 µM (inactive) (FP, mean of runs). Also, the negative-log IC50 (pIC50) was less than 4.00 under setting [1], less than 4.02 under setting [2] and less than 4.02 under setting [3].

`Cc1ccc(NC(=O)c2ccc3c(c2)S(=O)(=O)c2ccccc2C3=O)cc1S(=O)(=O)N1CCOCC1`: the IC50 runs as follows: (AlphaScreen, mean of runs) > 100 µM (inactive); (FP, mean of runs) > 95 µM (inactive). The pIC50 under setting [1] was less than 4.00, the pIC50 under setting [2] was less than 4.02 and the negative-log IC50 (pIC50) under setting [3] was less than 4.02.

For `O=C1c2cc([N+](=O)[O-])cc3cc([N+](=O)[O-])cc(c23)C(=O)N1c1ccccn1`, the IC50 reads like this: (AlphaScreen, mean of runs) > 100 µM (inactive); (FP, mean of runs) > 95 µM (inactive). This molecule also had a pIC50 under setting [1] of less than 4.00, a pIC50 under setting [2] of less than 4.02 and a pIC50 under setting [3] of less than 4.02.

Regarding `Cc1ccc(Cl)cc1N1CCN(C(=O)c2cccc3c(=O)c(C)c(-c4ccccc4)oc23)CC1`, the IC50 (AlphaScreen, mean of runs) is > 100 µM (inactive). The pIC50 is, setting by setting: under setting [1], less than 4.00; under setting [2], 4.58; under setting [3], less than 4.02. Also, where the note is “FP, mean of runs”, the IC50 result was “inactive”.

Turning to `Cc1ccc(COn2c(-c3ccc(Cl)cc3Cl)nc3ncccc32)cc1`, the IC50 is > 100 µM (inactive) (AlphaScreen, mean of runs) and > 95 µM (inactive) (FP, mean of runs). In addition, the pIC50 by setting is: under setting [1], less than 4.00; under setting [2], less than 4.02; under setting [3], less than 4.02.

For the molecule `COc1ccc(-c2csc(Nc3cccnc3)n2)cc1`, the IC50 runs as follows: (AlphaScreen, mean of runs) > 100 µM (inactive); (FP, mean of runs) > 95 µM (inactive). Further, the pIC50 is, setting by setting: under setting [1], less than 4.00; under setting [2], less than 4.02; under setting [3], less than 4.02.

For `CCOC(=O)C1(O)CC(C)=NN1C(=O)c1cccc(Br)c1` (stereo not given), the IC50 runs as follows: (AlphaScreen, mean of runs) > 100 µM (inactive); (FP, mean of runs) > 95 µM (inactive). Moreover, the negative-log IC50 (pIC50) runs as follows: under setting [1], less than 4.00; under setting [2], less than 4.02; under setting [3], less than 4.02.

With `CC(C)COC(=O)C1C2C=CC3(CN(C(C)c4ccc(Br)cc4)C(=O)C13)O2` (stereo not given), the IC50 is, setting by setting: (AlphaScreen, mean of runs) > 100 µM (inactive); (FP, mean of runs) > 95 µM (inactive). Also, the pIC50 reads like this: under setting [1], less than 4.00; under setting [2], less than 4.02; under setting [3], less than 4.02.

Consider `CCc1cc(C(=O)OC)c(NC(=O)c2ccoc2C)s1`, for which the IC50 runs as follows: (AlphaScreen, mean of runs) > 100 µM (inactive); (FP, mean of runs) > 95 µM (inactive). For the same molecule, the pIC50 by setting is: under setting [1], less than 4.00; under setting [2], less than 4.02; under setting [3], less than 4.02.
